From patent US20230085307A1, “PYRIDAZINONE COMPOUND AND HERBICIDE” (NISSAN CHEMICAL CORPORATION, priority 2019, published 2023)

Columns and labels:
[1] = tested on: late watergrass; assay: Test Example 1: herbicidal activity, application before weed generation under submerged conditions (Table 16, symbol A); assay type: in vivo, late watergrass (Echinochloa oryzicola); conditions: amount of applied herbicide 320 g/ha
In short: (§1)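 Alluvial soil was flooded to 4 cm depth, weed seeds were sown mixed and 2.5-leaf rice seedlings were transplanted. On sowing day, the compound's emulsion, diluted in water to a set dose, was applied to the water surface. Plants grew at 25–30 °C and were scored 0–5 after three weeks.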

[2] = tested on: Japanese bulrush; assay: Test Example 1: herbicidal activity, application before weed generation under submerged conditions (Table 16, symbol B); assay type: in vivo, Japanese bulrush (Schoenoplectus juncoides); conditions: amount of applied herbicide 320 g/ha
In short: as §1

[3] = tested on: oval-leafed pondweed; assay: Test Example 1: herbicidal activity, application before weed generation under submerged conditions (Table 16, symbol C); assay type: in vivo, oval-leafed pondweed (Monochoria vaginalis); conditions: amount of applied herbicide 320 g/ha
In short: as §1

[4] = tested on: southern crabgrass; assay: Test Example 4: herbicidal effect by soil treatment (Table 19, symbol F); assay type: in vivo, southern crabgrass (Digitaria ciliaris); conditions: amount of applied herbicide 320 g/ha
In short: (§2)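 Soil-surface application: an emulsion agent diluted with water to the predetermined dose is sprayed uniformly over seeds lying under roughly 1.5 cm of sterilized diluvial soil. Boxes stay in a greenhouse at 25° C. to 30° C. Three weeks later, each species is graded on previously defined criteria.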

[5] = tested on: green foxtail; assay: Test Example 4: herbicidal effect by soil treatment (Table 19, symbol G); assay type: in vivo, green foxtail (Setaria viridis); conditions: amount of applied herbicide 320 g/ha
In short: as §2

[6] = tested on: barnyard grass; assay: Test Example 4: herbicidal effect by soil treatment (Table 19, symbol H); assay type: in vivo, barnyard grass (Echinochloa crus-galli); conditions: amount of applied herbicide 320 g/ha
In short: as §2

[7] = tested on: wild oat; assay: Test Example 4: herbicidal effect by soil treatment (Table 19, symbol I); assay type: in vivo, wild oat (Avena fatua); conditions: amount of applied herbicide 320 g/ha
In short: as §2

[8] = tested on: blackgrass; assay: Test Example 4: herbicidal effect by soil treatment (Table 19, symbol J); assay type: in vivo, blackgrass (Alopecurus myosuroides); conditions: amount of applied herbicide 320 g/ha
In short: as §2

[9] = tested on: Italian ryegrass; assay: Test Example 4: herbicidal effect by soil treatment (Table 19, symbol K); assay type: in vivo, Italian ryegrass (Lolium multiflorum); conditions: amount of applied herbicide 320 g/ha
In short: as §2

[10] = tested on: windgrass; assay: Test Example 4: herbicidal effect by soil treatment (Table 19, symbol L); assay type: in vivo, windgrass (Apera spica-venti); conditions: amount of applied herbicide 320 g/ha
In short: as §2

[11] = tested on: velvetleaf; assay: Test Example 4: herbicidal effect by soil treatment (Table 19, symbol M); assay type: in vivo, velvetleaf (Abutilon theophrasti); conditions: amount of applied herbicide 320 g/ha
In short: as §2

[12] = tested on: redroot pigweed; assay: Test Example 4: herbicidal effect by soil treatment (Table 19, symbol N); assay type: in vivo, redroot pigweed (Amaranthus retroflexus); conditions: amount of applied herbicide 320 g/ha
In short: as §2

[13] = tested on: lambsquarters; assay: Test Example 4: herbicidal effect by soil treatment (Table 19, symbol O); assay type: in vivo, lambsquarters (Chenopodium album); conditions: amount of applied herbicide 320 g/ha
In short: as §2

[14] = tested on: chickweed; assay: Test Example 4: herbicidal effect by soil treatment (Table 19, symbol P); assay type: in vivo, common chickweed (Stellaria media); conditions: amount of applied herbicide 320 g/ha
In short: as §2

[15] = tested on: false cleavers; assay: Test Example 4: herbicidal effect by soil treatment (Table 19, symbol Q); assay type: in vivo, false cleavers (Galium spurium); conditions: amount of applied herbicide 320 g/ha
In short: as §2

[16] = tested on: persian speedwell; assay: Test Example 4: herbicidal effect by soil treatment (Table 19, symbol R); assay type: in vivo, Persian speedwell (Veronica persica); conditions: amount of applied herbicide 320 g/ha
In short: as §2

[17] = tested on: southern crabgrass; assay: Test Example 5: herbicidal effect by foliage application, plastic box (Table 20, symbol F); assay type: in vivo, southern crabgrass (Digitaria ciliaris); conditions: 320 g/ha, foliage application after 14-day growth, evaluated three weeks after application
In short: (§3)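 Sow seeds spot-wise in sterilized diluvial soil; cover with ~1.5 cm soil. Grow 14 days in greenhouse, 25° C. to 30° C. Spray foliage with emulsion diluted to predetermined amount. Rate effect after 3 weeks.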

[18] = tested on: green foxtail; assay: Test Example 5: herbicidal effect by foliage application, plastic box (Table 20, symbol G); assay type: in vivo, green foxtail (Setaria viridis); conditions: 320 g/ha, foliage application after 14-day growth, evaluated three weeks after application
In short: as §3

[19] = tested on: barnyard grass; assay: Test Example 5: herbicidal effect by foliage application, plastic box (Table 20, symbol H); assay type: in vivo, barnyard grass (Echinochloa crus-galli); conditions: 320 g/ha, foliage application after 14-day growth, evaluated three weeks after application
In short: as §3

[20] = tested on: wild oat; assay: Test Example 5: herbicidal effect by foliage application, plastic box (Table 20, symbol I); assay type: in vivo, wild oat (Avena fatua); conditions: 320 g/ha, foliage application after 14-day growth, evaluated three weeks after application
In short: as §3

[21] = tested on: blackgrass; assay: Test Example 5: herbicidal effect by foliage application, plastic box (Table 20, symbol J); assay type: in vivo, blackgrass (Alopecurus myosuroides); conditions: 320 g/ha, foliage application after 14-day growth, evaluated three weeks after application
In short: as §3

[22] = tested on: Italian ryegrass; assay: Test Example 5: herbicidal effect by foliage application, plastic box (Table 20, symbol K); assay type: in vivo, Italian ryegrass (Lolium multiflorum); conditions: 320 g/ha, foliage application after 14-day growth, evaluated three weeks after application
In short: as §3

[23] = tested on: windgrass; assay: Test Example 5: herbicidal effect by foliage application, plastic box (Table 20, symbol L); assay type: in vivo, windgrass (Apera spica-venti); conditions: 320 g/ha, foliage application after 14-day growth, evaluated three weeks after application
In short: as §3

[24] = tested on: velvetleaf; assay: Test Example 5: herbicidal effect by foliage application, plastic box (Table 20, symbol M); assay type: in vivo, velvetleaf (Abutilon theophrasti); conditions: 320 g/ha, foliage application after 14-day growth, evaluated three weeks after application
In short: as §3

[25] = tested on: redroot pigweed; assay: Test Example 5: herbicidal effect by foliage application, plastic box (Table 20, symbol N); assay type: in vivo, redroot pigweed (Amaranthus retroflexus); conditions: 320 g/ha, foliage application after 14-day growth, evaluated three weeks after application
In short: as §3

[26] = tested on: lambsquarters; assay: Test Example 5: herbicidal effect by foliage application, plastic box (Table 20, symbol O); assay type: in vivo, lambsquarters (Chenopodium album); conditions: 320 g/ha, foliage application after 14-day growth, evaluated three weeks after application
In short: as §3

[27] = tested on: chickweed; assay: Test Example 5: herbicidal effect by foliage application, plastic box (Table 20, symbol P); assay type: in vivo, common chickweed (Stellaria media); conditions: 320 g/ha, foliage application after 14-day growth, evaluated three weeks after application
In short: as §3

[28] = tested on: persian speedwell; assay: Test Example 5: herbicidal effect by foliage application, plastic box (Table 20, symbol R); assay type: in vivo, Persian speedwell (Veronica persica); conditions: 320 g/ha, foliage application after 14-day growth, evaluated three weeks after application
In short: as §3

## Cc1nn(C)c(=O)c(-c2c(-c3ccc(C(C)C)cc3)sc3c(F)cccc23)c1O [4-042]
[1]
  Herbicidal effect, A: late watergrass: 3 (Herbicidal rate of 40% or more and less than 70%)
[2]
  Herbicidal effect, B: Japanese bulrush: 3 (Herbicidal rate of 40% or more and less than 70%)
[3]
  Herbicidal effect, C: oval-leafed pondweed: 0 (Herbicidal rate of 5% or less (almost no effect))
[4]
  Herbicidal effect by soil treatment, F: southern crabgrass: 0 (Herbicidal rate of 5% or less (almost no effect))
[5]
  Herbicidal effect by soil treatment, G: green foxtail: 0 (Herbicidal rate of 5% or less (almost no effect))
[6]
  Herbicidal effect by soil treatment, H: barnyard grass: 1 (Herbicidal rate of 5% or more and less than 20%)
[7]
  Herbicidal effect by soil treatment, I: wild oat: 0 (Herbicidal rate of 5% or less (almost no effect))
[8]
  Herbicidal effect by soil treatment, J: blackgrass: 0 (Herbicidal rate of 5% or less (almost no effect))
[9]
  Herbicidal effect by soil treatment, K: Italian ryegrass: 0 (Herbicidal rate of 5% or less (almost no effect))
[10]
  Herbicidal effect by soil treatment, L: windgrass: 0 (Herbicidal rate of 5% or less (almost no effect))
[11]
  Herbicidal effect by soil treatment, M: velvetleaf: 1 (Herbicidal rate of 5% or more and less than 20%)
[12]
  Herbicidal effect by soil treatment, N: redroot pigweed: 4 (Herbicidal rate of 70% or more and less than 90%)
[13]
  Herbicidal effect by soil treatment, O: lambsquarters: 3 (Herbicidal rate of 40% or more and less than 70%)
[14]
  Herbicidal effect by soil treatment, P: chickweed: 5 (Herbicidal rate of 90% or more (almost completely withered))
[15]
  Herbicidal effect by soil treatment, Q: false cleavers: 0 (Herbicidal rate of 5% or less (almost no effect))
[16]
  Herbicidal effect by soil treatment, R: persian speedwell: 3 (Herbicidal rate of 40% or more and less than 70%)
[17]
  herbicidal effect on F: southern crabgrass (evaluation grade 0-5): 1 (Herbicidal rate of 5% or more and less than 20%)
[18]
  herbicidal effect on G: green foxtail (evaluation grade 0-5): 4 (Herbicidal rate of 70% or more and less than 90%)
[19]
  herbicidal effect on H: barnyard grass (evaluation grade 0-5): 5 (Herbicidal rate of 90% or more (almost completely withered))
[20]
  herbicidal effect on I: wild oat (evaluation grade 0-5): 0 (Herbicidal rate of 5% or less (almost no effect))
[21]
  herbicidal effect on J: blackgrass (evaluation grade 0-5): 0 (Herbicidal rate of 5% or less (almost no effect))
[22]
  herbicidal effect on K: Italian ryegrass (evaluation grade 0-5): 3 (Herbicidal rate of 40% or more and less than 70%)
[23]
  herbicidal effect on L: windgrass (evaluation grade 0-5): 0 (Herbicidal rate of 5% or less (almost no effect))
[24]
  herbicidal effect on M: velvetleaf (evaluation grade 0-5): 5 (Herbicidal rate of 90% or more (almost completely withered))
[25]
  herbicidal effect on N: redroot pigweed (evaluation grade 0-5): 5 (Herbicidal rate of 90% or more (almost completely withered))
[26]
  herbicidal effect on O: lambsquarters (evaluation grade 0-5): 4 (Herbicidal rate of 70% or more and less than 90%)
[27]
  herbicidal effect on P: chickweed (evaluation grade 0-5): 5 (Herbicidal rate of 90% or more (almost completely withered))
[28]
  herbicidal effect on R: persian speedwell (evaluation grade 0-5): 5 (Herbicidal rate of 90% or more (almost completely withered))
